#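 Cultured in 96-well plates, cells were exposed to test compound for 48 hours across five concentrations. TGI denotes the concentration required for complete inhibition of growth.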
# Legend:
# Experiment in all cases: inhibition of tumour cell growth, NCI panel, 48 h
# 786-0 renal = tested on: 786-0 renal
# A498 renal = tested on: A498 renal
# A549 NSCLC = tested on: A549 NSCLC
# ACHN renal = tested on: ACHN renal
# BT-549 breast = tested on: BT-549 breast
# CAKI-1 renal = tested on: CAKI-1 renal
# CCRF-CEM leukemia = tested on: CCRF-CEM leukemia
# COLO 205 colon = tested on: COLO 205 colon
# DU-145 prostate = tested on: DU-145 prostate
# EKVX NSCLC = tested on: EKVX NSCLC
# HCC-2998 colon = tested on: HCC-2998 colon
# HCT-116 colon = tested on: HCT-116 colon
# HCT-15 colon = tested on: HCT-15 colon
# HL-60(TB) leukemia = tested on: HL-60(TB) leukemia
# HOP-62 NSCLC = tested on: HOP-62 NSCLC
# HOP-92 NSCLC = tested on: HOP-92 NSCLC
# HS 578T breast = tested on: HS 578T breast
# HT29 colon = tested on: HT29 colon
# IGROV1 ovarian = tested on: IGROV1 ovarian
# K-562 leukemia = tested on: K-562 leukemia
# KM12 colon = tested on: KM12 colon
# LOX IMVI melanoma = tested on: LOX IMVI melanoma
# M14 melanoma = tested on: M14 melanoma
# MALME-3M melanoma = tested on: MALME-3M melanoma
# MCF7 breast = tested on: MCF7 breast
# MDA-MB-231 breast = tested on: MDA-MB-231 breast
# MDA-MB-435 = tested on: MDA-MB-435
# MDA-N = tested on: MDA-N
# MOLT-4 leukemia = tested on: MOLT-4 leukemia
# NCI-H226 lung = tested on: NCI-H226 lung
# NCI-H23 lung = tested on: NCI-H23 lung
# NCI-H460 lung = tested on: NCI-H460 lung
# NCI/ADR-RES ovarian = tested on: NCI/ADR-RES ovarian
# OVCAR-3 ovarian = tested on: OVCAR-3 ovarian
# OVCAR-5 ovarian = tested on: OVCAR-5 ovarian
# OVCAR-8 ovarian = tested on: OVCAR-8 ovarian
# PC-3 prostate = tested on: PC-3 prostate
# RPMI-8226 leukemia = tested on: RPMI-8226 leukemia
# RXF 393 renal = tested on: RXF 393 renal
# SF-268 CNS = tested on: SF-268 CNS
# SF-295 CNS = tested on: SF-295 CNS
# SF-539 CNS = tested on: SF-539 CNS
# SK-OV-3 ovarian = tested on: SK-OV-3 ovarian
# SN12C renal = tested on: SN12C renal
# SNB-19 CNS = tested on: SNB-19 CNS
# SR leukemia = tested on: SR leukemia
# SW-620 colon = tested on: SW-620 colon
# T-47D breast = tested on: T-47D breast
# TK-10 renal = tested on: TK-10 renal
# U251 CNS = tested on: U251 CNS
# UACC-62 melanoma = tested on: UACC-62 melanoma
# UO-31 renal = tested on: UO-31 renal
# DLD-1 colon = tested on: DLD-1 colon
# DMS 114 small cell lung = tested on: DMS 114 small cell lung
# DMS 273 small cell lung = tested on: DMS 273 small cell lung
# HOP-18 NSCLC = tested on: HOP-18 NSCLC
# KM20L2 colon = tested on: KM20L2 colon
# LXFL 529 NSCLC = tested on: LXFL 529 NSCLC
# NCI-H522 lung = tested on: NCI-H522 lung
# OVCAR-4 ovarian = tested on: OVCAR-4 ovarian
# SK-MEL-2 melanoma = tested on: SK-MEL-2 melanoma
# SK-MEL-28 melanoma = tested on: SK-MEL-28 melanoma
# SK-MEL-5 melanoma = tested on: SK-MEL-5 melanoma
# SNB-75 CNS = tested on: SNB-75 CNS
# UACC-257 melanoma = tested on: UACC-257 melanoma
smiles,measurement,setting,value
O=[N+]([O-])C(C=C(n1nnc2ccccc21)n1nnc2ccccc21)=C(n1nnc2ccccc21)n1nnc2ccccc21,TGI,786-0 renal,> 100 µM
same,TGI,A498 renal,> 100 µM
same,TGI,A549 NSCLC,> 100 µM
same,TGI,ACHN renal,> 100 µM
same,TGI,BT-549 breast,> 100 µM
same,TGI,CAKI-1 renal,> 100 µM
same,TGI,CCRF-CEM leukemia,> 100 µM
same,TGI,COLO 205 colon,> 100 µM
same,TGI,DU-145 prostate,> 100 µM
same,TGI,EKVX NSCLC,> 100 µM
same,TGI,HCC-2998 colon,> 100 µM
same,TGI,HCT-116 colon,> 100 µM
same,TGI,HCT-15 colon,> 100 µM
same,TGI,HL-60(TB) leukemia,> 100 µM
same,TGI,HOP-62 NSCLC,> 100 µM
same,TGI,HOP-92 NSCLC,> 100 µM
same,TGI,HS 578T breast,> 100 µM
same,TGI,HT29 colon,> 100 µM
same,TGI,IGROV1 ovarian,> 100 µM
same,TGI,K-562 leukemia,> 100 µM
same,TGI,KM12 colon,> 100 µM
same,TGI,LOX IMVI melanoma,> 100 µM
same,TGI,M14 melanoma,> 100 µM
same,TGI,MALME-3M melanoma,> 100 µM
same,TGI,MCF7 breast,> 100 µM
same,TGI,MDA-MB-231 breast,> 100 µM
same,TGI,MDA-MB-435,> 100 µM
same,TGI,MDA-N,> 100 µM
same,TGI,MOLT-4 leukemia,93.4 µM
same,TGI,NCI-H226 lung,> 100 µM
same,TGI,NCI-H23 lung,> 100 µM
same,TGI,NCI-H460 lung,> 100 µM
same,TGI,NCI/ADR-RES ovarian,> 100 µM
same,TGI,OVCAR-3 ovarian,> 100 µM
same,TGI,OVCAR-5 ovarian,> 100 µM
same,TGI,OVCAR-8 ovarian,> 100 µM
same,TGI,PC-3 prostate,> 100 µM
same,TGI,RPMI-8226 leukemia,> 100 µM
same,TGI,RXF 393 renal,> 100 µM
same,TGI,SF-268 CNS,> 100 µM
same,TGI,SF-295 CNS,> 100 µM
same,TGI,SF-539 CNS,> 100 µM
same,TGI,SK-OV-3 ovarian,> 100 µM
same,TGI,SN12C renal,> 100 µM
same,TGI,SNB-19 CNS,> 100 µM
same,TGI,SR leukemia,66.6 µM
same,TGI,SW-620 colon,> 100 µM
same,TGI,T-47D breast,> 100 µM
same,TGI,TK-10 renal,> 100 µM
same,TGI,U251 CNS,> 100 µM
same,TGI,UACC-62 melanoma,> 100 µM
same,TGI,UO-31 renal,> 100 µM
S=c1nc[nH]c2c1ncn2C1CCCO1 (stereo not given),TGI,786-0 renal,> 100 µM
same,TGI,A498 renal,> 100 µM
same,TGI,A549 NSCLC,> 100 µM
same,TGI,ACHN renal,> 100 µM
same,TGI,CAKI-1 renal,> 100 µM
same,TGI,CCRF-CEM leukemia,> 100 µM
same,TGI,COLO 205 colon,> 100 µM
same,TGI,DLD-1 colon,> 100 µM
same,TGI,DMS 114 small cell lung,> 100 µM
same,TGI,DMS 273 small cell lung,> 100 µM
same,TGI,HCC-2998 colon,> 100 µM
same,TGI,HCT-116 colon,> 100 µM
same,TGI,HCT-15 colon,> 100 µM
same,TGI,HL-60(TB) leukemia,> 100 µM
same,TGI,HOP-18 NSCLC,> 100 µM
same,TGI,HOP-62 NSCLC,> 100 µM
same,TGI,HOP-92 NSCLC,> 100 µM
same,TGI,HT29 colon,> 100 µM
same,TGI,IGROV1 ovarian,> 100 µM
same,TGI,K-562 leukemia,> 100 µM
same,TGI,KM12 colon,> 100 µM
same,TGI,KM20L2 colon,> 100 µM
same,TGI,LOX IMVI melanoma,> 100 µM
same,TGI,LXFL 529 NSCLC,> 100 µM
same,TGI,M14 melanoma,> 100 µM
same,TGI,MALME-3M melanoma,> 100 µM
same,TGI,MOLT-4 leukemia,> 100 µM
same,TGI,NCI-H23 lung,> 100 µM
same,TGI,NCI-H460 lung,> 100 µM
same,TGI,NCI-H522 lung,> 100 µM
same,TGI,OVCAR-3 ovarian,> 100 µM
same,TGI,OVCAR-4 ovarian,> 100 µM
same,TGI,OVCAR-5 ovarian,> 100 µM
same,TGI,OVCAR-8 ovarian,> 100 µM
same,TGI,RPMI-8226 leukemia,> 100 µM
same,TGI,RXF 393 renal,> 100 µM
same,TGI,SF-268 CNS,> 100 µM
same,TGI,SF-295 CNS,> 100 µM
same,TGI,SF-539 CNS,> 100 µM
same,TGI,SK-MEL-2 melanoma,> 100 µM
same,TGI,SK-MEL-28 melanoma,> 100 µM
same,TGI,SK-MEL-5 melanoma,> 100 µM
same,TGI,SK-OV-3 ovarian,> 100 µM
same,TGI,SN12C renal,> 100 µM
same,TGI,SNB-19 CNS,> 100 µM
same,TGI,SNB-75 CNS,> 100 µM
same,TGI,SW-620 colon,> 100 µM
same,TGI,TK-10 renal,> 100 µM
same,TGI,U251 CNS,> 100 µM
same,TGI,UACC-62 melanoma,> 100 µM
same,TGI,UO-31 renal,> 100 µM
CCCCCCCCCCCCCCCCOCC(O)CO (stereo not given),TGI,786-0 renal,32.8 µM
same,TGI,A498 renal,34.5 µM
same,TGI,A549 NSCLC,44 µM
same,TGI,ACHN renal,33.6 µM
same,TGI,BT-549 breast,47 µM
same,TGI,CAKI-1 renal,35 µM
same,TGI,CCRF-CEM leukemia,27.3 µM
same,TGI,COLO 205 colon,50.8 µM
same,TGI,DU-145 prostate,34 µM
same,TGI,EKVX NSCLC,36.3 µM
same,TGI,HCC-2998 colon,32.2 µM
same,TGI,HCT-116 colon,34.1 µM
same,TGI,HCT-15 colon,35.9 µM
same,TGI,HL-60(TB) leukemia,23.4 µM
same,TGI,HOP-62 NSCLC,43 µM
same,TGI,HOP-92 NSCLC,41.9 µM
same,TGI,HS 578T breast,39.7 µM
same,TGI,HT29 colon,31.8 µM
same,TGI,IGROV1 ovarian,31.1 µM
same,TGI,KM12 colon,32.1 µM
same,TGI,LOX IMVI melanoma,33.4 µM
same,TGI,M14 melanoma,58 µM
same,TGI,MALME-3M melanoma,36.1 µM
same,TGI,MCF7 breast,38.1 µM
same,TGI,MDA-MB-231 breast,35.6 µM
same,TGI,MDA-MB-435,33.4 µM
same,TGI,MDA-N,60.6 µM
same,TGI,MOLT-4 leukemia,29.6 µM
same,TGI,NCI-H226 lung,40 µM
same,TGI,NCI-H23 lung,37.2 µM
same,TGI,NCI-H460 lung,37.7 µM
same,TGI,NCI-H522 lung,33.2 µM
same,TGI,NCI/ADR-RES ovarian,34.7 µM
same,TGI,OVCAR-3 ovarian,46.7 µM
same,TGI,OVCAR-4 ovarian,46.1 µM
same,TGI,OVCAR-5 ovarian,52.2 µM
same,TGI,OVCAR-8 ovarian,35.4 µM
same,TGI,PC-3 prostate,37.8 µM
same,TGI,RPMI-8226 leukemia,37.4 µM
same,TGI,RXF 393 renal,35.7 µM
same,TGI,SF-268 CNS,36 µM
same,TGI,SF-295 CNS,30.3 µM
same,TGI,SF-539 CNS,31.5 µM
same,TGI,SK-MEL-2 melanoma,40.1 µM
same,TGI,SK-MEL-28 melanoma,33.3 µM
same,TGI,SK-MEL-5 melanoma,71.9 µM
same,TGI,SK-OV-3 ovarian,31.3 µM
same,TGI,SN12C renal,36.3 µM
same,TGI,SNB-19 CNS,52.4 µM
same,TGI,SR leukemia,28.5 µM
same,TGI,SW-620 colon,41.2 µM
same,TGI,T-47D breast,46.2 µM
same,TGI,TK-10 renal,28.9 µM
same,TGI,U251 CNS,36.2 µM
same,TGI,UACC-257 melanoma,35.7 µM
same,TGI,UACC-62 melanoma,35.2 µM
same,TGI,UO-31 renal,32.4 µM

# Reference: PubChem BioAssay (NCI)
